Measured values: US9617222B1, “Alkynyl indazole derivative and use thereof” (SENJU PHARMACEUTICAL CO., LTD., priority 2014, dated 2017)
In brackets after ≈: the same amount, converted by molar mass.

Assay: Solubility test in 0.1% phosphate buffer solution (pH 7.0)
Type: physicochemical
Conditions: aqueous buffer, thermodynamic from solid; 0.1% phosphate buffer solution (pH 7.0), room temperature overnight
Method: The mixture was subjected to ultrasonic irradiation for 30 seconds, and then shaken at room temperature overnight. The resulting suspension was left at rest at room temperature for 30 minutes, then filtered through a chromatography disc (0.20 μm) to prepare a sample solution. The sample solution and the standard solution were analyzed by LC-MS (product name: ACQUITY UPLC H-CLASS SYSTEM and Xevo TQ-S, produced by Nihon Waters K.K.), and a solubility was calculated from the obtained peak area value by an external standard method.

Row | SMILES | solubility [µg/mL]
1 | CNC(=O)c1ccccc1Sc1ccc2c(C#Cc3ccc(NC(=O)OCCOCCOCCOCCOC)cc3)n[nH]c2c1 [Compound 17, 2,5,8,11-tetraoxatridecane-13-yl {4-[(6-{[2-(methylcarbamoyl)phenyl]thio}-1H-indazol-3-yl)ethynyl]phenyl}carbamate] | 0.38 (≈ 0.601 µM)
2 | CNC(=O)c1ccccc1Sc1ccc2c(C#Cc3ccc(NC(=O)OCCOCCOCCOCCOCCOC)cc3)n[nH]c2c1 [Compound 18, 2,5,8,11,14-pentaoxahexadecane-16-yl {4-[(6-{[2-(methylcarbamoyl)phenyl]thio}-1H-indazol-3-yl)ethynyl]phenyl}carbamate] | 0.86 (≈ 1.27 µM)
3 | CNC(=O)c1ccccc1Sc1ccc2c(C#Cc3ccc(NC(=O)COCCOCCOCCOCCOCCOC)cc3)n[nH]c2c1 [Compound 22, N-{4-[(6-{[2-(methylcarbamoyl)phenyl]thio}-1H-indazol-3-yl)ethynyl]phenyl}-2,5,8,11,14,17-hexaoxanonadecane-19-amide] | 3.3 (≈ 4.78 µM)
4 | CNC(=O)c1ccccc1Sc1ccc2c(C#Cc3ccc(NCCOCCOCCOCCOC)cc3)n[nH]c2c1 [Compound 28, 2-{[3-({4-[(2,5,8,11-tetraoxatridecane-13-yl)amino]phenyl}ethynyl)-1H-indazol-6-yl]thio}-N-methylbenzamide] | 0.17 (≈ 0.289 µM)
5 | CNC(=O)c1ccccc1Sc1ccc2c(C#Cc3ccc(NCCOCCOCCOCCOCCOC)cc3)n[nH]c2c1 [Compound 29, 2-{[3-({4-[(2,5,8,11,14-pentaoxahexadecane-16-yl)amino]phenyl}ethynyl)-1H-indazol-6-yl]thio}-N-methylbenzamide] | 0.89 (≈ 1.41 µM)
6 | CNC(=O)c1ccccc1Sc1ccc2c(C#Cc3ccc(NC(=O)NCCOCCOCCOCCOCCOC)nc3)n[nH]c2c1 [Compound 34, 2-{[3-({6-[3-(2,5,8,11,14-pentaoxahexadecane-16-yl)ureido]pyridine-3-yl}ethynyl)-1H-indazol-6-yl]thio}-N-methylbenzamide] | 2.6 (≈ 3.84 µM)

The remaining lines, values ahead:

Row | solubility [µg/mL] | SMILES
7 | 0.31 (≈ 0.491 µM) | CNC(=O)c1ccccc1Sc1ccc2c(C#Cc3cccc(NC(=O)NCCOCCOCCOCCOC)c3)n[nH]c2c1 [Compound 4]
8 | 0.99 (≈ 1.46 µM) | CNC(=O)c1ccccc1Sc1ccc2c(C#Cc3cccc(NC(=O)NCCOCCOCCOCCOCCOC)c3)n[nH]c2c1 [Compound 5, 2-{[3-({3-[3-(2,5,8,11,14-pentaoxahexadecane-16-yl)ureido]phenyl}ethynyl)-1H-indazol-6-yl]thio}-N-methylbenzamide]
9 | 1.2 (≈ 1.9 µM) | CNC(=O)c1ccccc1Sc1ccc2c(C#Cc3ccc(NC(=O)NCCOCCOCCOCCOC)cc3)n[nH]c2c1 [Compound 9, 2-{[3-({4-[3-(2,5,8,11-tetraoxatridecane-13-yl)ureido]phenyl}ethynyl)-1H-indazol-6-yl]thio}-N-methylbenzamide]
10 | 2.5 (≈ 3.7 µM) | CNC(=O)c1ccccc1Sc1ccc2c(C#Cc3ccc(NC(=O)NCCOCCOCCOCCOCCOC)cc3)n[nH]c2c1 [Compound 10, 2-{[3-({4-[3-(2,5,8,11,14-pentaoxahexadecane-16-yl)ureido]phenyl}ethynyl)-1H-indazol-6-yl]thio}-N-methylbenzamide]
11 | 0.58 (≈ 0.985 µM) | CNC(=O)c1ccccc1Sc1ccc2c(C#Cc3cncc(NC(=O)NCCOCCOCCOC)c3)n[nH]c2c1 [Compound 30, 2-[(3-{[5-(3-{2-[2-(2-methoxyethoxy)ethoxy]ethyl}ureido)pyridine-3-yl]ethynyl}-1H-indazol-6-yl)thio]-N-methylbenzamide]
12 | 9.9 (≈ 14.6 µM) | CNC(=O)c1ccccc1Sc1ccc2c(C#Cc3cncc(NC(=O)NCCOCCOCCOCCOCCOC)c3)n[nH]c2c1 [Compound 31, 2-{[3-({5-[3-(2,5,8,11,14-pentaoxahexadecane-16-yl)ureido]pyridine-3-yl}ethynyl)-1H-indazol-6-yl]thio}-N-methylbenzamide]
13 | 16 (≈ 25.3 µM) | CNC(=O)c1ccccc1Sc1ccc2c(C#Cc3ccc(NC(=O)NCCOCCOCCOCCOC)cn3)n[nH]c2c1 [Compound 36, 2-{[3-({5-[3-(2,5,8,11-tetraoxatridecane-13-yl)ureido]pyridine-2-yl}ethynyl)-1H-indazol-6-yl]thio}-N-methylbenzamide]
